Biological target: T1, bovine serum albumin (BSA) (Bos taurus, UniProt P02769)
T1 construct: gene ALB
Test: intrinsic fluorescence quenching (double-log Stern-Volmer, binding constant K at […] K); supported by UV absorption, CD and warfarin probe displacement
Details: read-out: K (10^4 L.mol^- 1) (converted)

T1 sequence (P02769 25-607): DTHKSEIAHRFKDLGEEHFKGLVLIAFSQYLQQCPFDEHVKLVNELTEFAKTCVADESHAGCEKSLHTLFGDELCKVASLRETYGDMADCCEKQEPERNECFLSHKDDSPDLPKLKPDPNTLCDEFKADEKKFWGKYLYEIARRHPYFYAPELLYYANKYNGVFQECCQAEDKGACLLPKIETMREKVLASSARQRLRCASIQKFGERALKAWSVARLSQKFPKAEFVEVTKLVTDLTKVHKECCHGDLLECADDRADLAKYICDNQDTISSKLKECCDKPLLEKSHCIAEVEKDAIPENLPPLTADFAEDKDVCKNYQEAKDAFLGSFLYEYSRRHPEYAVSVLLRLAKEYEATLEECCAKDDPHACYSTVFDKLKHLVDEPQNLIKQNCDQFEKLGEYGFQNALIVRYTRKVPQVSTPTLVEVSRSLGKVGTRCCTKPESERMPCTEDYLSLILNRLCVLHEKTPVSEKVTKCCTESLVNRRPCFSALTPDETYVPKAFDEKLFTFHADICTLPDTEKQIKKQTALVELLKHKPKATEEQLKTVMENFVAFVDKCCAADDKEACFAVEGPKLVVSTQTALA

SMILES: CCOC(=O)C1=C[C@@H](OC(CC)CC)[C@H](NC(C)=O)[C@@H](N)C1 [OP, (3R,4R,5 S)-4-acetamido-5-amino-3-(1-ethylepoxy)-1-cyclohexene-1-carboxylic acid ethyl ester phosphate]
- Kd: 47.8 µM

— publication PMC11227190, “Interaction mechanism of oseltamivir phosphate with bovine serum albumin: multispectroscopic and molecular docking study” (BMC Chemistry, 2024)
